Results as given in ChEMBL document CHEMBL1909046, “DrugMatrix in vitro pharmacology data”.

Assays:
[1] = DRUGMATRIX: GABAA, Flunitrazepam, Central radioligand binding (ligand: [3H] Flunitrazepam); format: cell membranes, Rattus norvegicus, Wistar, Brain, Membrane; settings: Not Active = under 50% inhibition at 10 µM
[2] = target: Matrix metalloproteinase-9 (Homo sapiens, UniProt P14780); format: cell-based;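 further: inhibition of isolated MMP-9 enzyme activity toward a synthetic peptide substrate, from the DrugMatrix protease screening panel; in other assays of this panel Not Active means under 50% inhibition at 10 µM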
Sequence of Matrix metalloproteinase-9 (P14780 whole entry): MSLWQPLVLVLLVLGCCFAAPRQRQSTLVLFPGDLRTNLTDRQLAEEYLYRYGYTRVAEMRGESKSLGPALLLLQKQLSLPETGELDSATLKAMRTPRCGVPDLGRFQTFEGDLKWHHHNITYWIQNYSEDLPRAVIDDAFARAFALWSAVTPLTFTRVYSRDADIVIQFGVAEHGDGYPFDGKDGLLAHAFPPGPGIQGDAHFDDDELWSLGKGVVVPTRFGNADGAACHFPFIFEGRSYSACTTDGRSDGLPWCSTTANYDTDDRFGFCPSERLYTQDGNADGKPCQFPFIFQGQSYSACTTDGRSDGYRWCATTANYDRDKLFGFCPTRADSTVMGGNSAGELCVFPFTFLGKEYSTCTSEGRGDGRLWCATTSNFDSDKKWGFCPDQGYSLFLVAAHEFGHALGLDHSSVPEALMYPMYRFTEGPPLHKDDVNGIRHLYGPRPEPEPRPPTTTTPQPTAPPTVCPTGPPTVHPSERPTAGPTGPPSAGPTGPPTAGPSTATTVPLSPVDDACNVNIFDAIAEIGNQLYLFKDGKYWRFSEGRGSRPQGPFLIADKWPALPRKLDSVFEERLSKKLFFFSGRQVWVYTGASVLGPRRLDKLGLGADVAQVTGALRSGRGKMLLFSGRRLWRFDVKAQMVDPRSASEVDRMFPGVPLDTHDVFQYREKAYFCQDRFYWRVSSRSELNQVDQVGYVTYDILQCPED

[3] = target: Protein phosphatase 3 catalytic subunit alpha (Homo sapiens, UniProt Q08209); set-up: species or system Escherichia coli;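 further: inhibition of calcineurin (PP2B) enzyme activity, measured with DiFMUP as the substrate; in other assays of this panel Not Active means under 50% inhibition at 10 µM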
[4] = target: Platelet-activating factor receptor (Homo sapiens, UniProt P25105); test: biochemical; format: tissue-based; settings: platelet; further: in other assays of this panel Not Active means under 50% inhibition at 10 µM
Sequence of Platelet-activating factor receptor (P25105 whole entry): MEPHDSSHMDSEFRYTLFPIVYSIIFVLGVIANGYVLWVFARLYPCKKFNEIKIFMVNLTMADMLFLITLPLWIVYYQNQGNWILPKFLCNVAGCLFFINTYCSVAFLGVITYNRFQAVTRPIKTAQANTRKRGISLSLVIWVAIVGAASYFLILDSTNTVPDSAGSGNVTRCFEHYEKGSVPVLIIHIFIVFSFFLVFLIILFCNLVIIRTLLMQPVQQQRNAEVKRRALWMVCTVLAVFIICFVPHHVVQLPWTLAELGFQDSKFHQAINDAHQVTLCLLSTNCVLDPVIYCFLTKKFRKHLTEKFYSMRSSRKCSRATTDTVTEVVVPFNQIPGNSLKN

[5] = DRUGMATRIX: Sigma2 radioligand binding (ligand: [3H] Ifenprodil); format: cell membranes, Rattus norvegicus, Wistar, Brain, Membrane; settings: Not Active = under 50% inhibition at 10 µM
[6] = target: T1, Polyunsaturated fatty acid lipoxygenase ALOX15 (Oryctolagus cuniculus, UniProt P12530); test: biochemical; format: tissue-based, Reticulocytes; settings: reticulocytes;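 further: inhibition of 15-lipoxygenase enzyme activity measured with linoleic acid as the substrate; in other assays of this panel Not Active means under 50% inhibition at 10 µM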
T1 sequence (P12530 whole entry): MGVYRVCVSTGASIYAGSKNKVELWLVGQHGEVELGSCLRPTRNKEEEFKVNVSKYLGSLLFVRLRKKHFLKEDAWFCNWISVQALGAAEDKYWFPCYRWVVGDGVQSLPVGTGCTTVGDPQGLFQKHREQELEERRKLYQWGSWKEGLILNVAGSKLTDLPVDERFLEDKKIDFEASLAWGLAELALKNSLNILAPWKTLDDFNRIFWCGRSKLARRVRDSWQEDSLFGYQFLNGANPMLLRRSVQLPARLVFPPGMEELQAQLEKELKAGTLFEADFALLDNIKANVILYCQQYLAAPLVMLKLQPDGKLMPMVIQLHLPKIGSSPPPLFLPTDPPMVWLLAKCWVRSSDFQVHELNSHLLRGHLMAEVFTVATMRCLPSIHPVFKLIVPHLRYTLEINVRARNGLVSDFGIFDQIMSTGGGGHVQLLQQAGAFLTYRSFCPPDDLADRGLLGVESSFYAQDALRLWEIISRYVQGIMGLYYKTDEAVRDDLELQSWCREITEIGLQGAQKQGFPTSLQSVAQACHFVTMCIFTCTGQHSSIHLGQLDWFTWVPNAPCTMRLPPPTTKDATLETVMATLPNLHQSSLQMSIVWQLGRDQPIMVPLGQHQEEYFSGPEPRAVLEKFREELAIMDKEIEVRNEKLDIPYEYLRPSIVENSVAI

[7] = target: cGMP-specific 3',5'-cyclic phosphodiesterase (Homo sapiens, UniProt O76074); test: DRUGMATRIX: Phosphodiesterase PDE5 enzyme inhibition (substrate: [3H]cGMP + cGMP); format: tissue-based, Platelet; settings: platelet; Not Active = under 50% inhibition at 10 µM
[8] = target: Sigma non-opioid intracellular receptor 1 (Homo sapiens, UniProt Q99720); test: DRUGMATRIX: Sigma1 radioligand binding (ligand: [3H] Haloperidol); format: cell membranes, Jurkat, Membrane; settings: jurkat; Not Active = under 50% inhibition at 10 µM
Sequence of Sigma non-opioid intracellular receptor 1 (Q99720 whole entry): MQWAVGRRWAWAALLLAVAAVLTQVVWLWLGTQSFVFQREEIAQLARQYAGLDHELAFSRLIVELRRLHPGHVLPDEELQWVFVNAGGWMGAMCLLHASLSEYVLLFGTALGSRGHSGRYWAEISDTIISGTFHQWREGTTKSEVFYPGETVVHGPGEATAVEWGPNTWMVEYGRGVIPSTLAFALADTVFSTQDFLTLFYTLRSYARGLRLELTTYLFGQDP

Estrogen receptor = target: T2, Estrogen receptor (Homo sapiens, UniProt P03372); settings: sf9; further: in other assays of this panel Not Active means under 50% inhibition at 10 µM
T2 sequence (P03372 whole entry): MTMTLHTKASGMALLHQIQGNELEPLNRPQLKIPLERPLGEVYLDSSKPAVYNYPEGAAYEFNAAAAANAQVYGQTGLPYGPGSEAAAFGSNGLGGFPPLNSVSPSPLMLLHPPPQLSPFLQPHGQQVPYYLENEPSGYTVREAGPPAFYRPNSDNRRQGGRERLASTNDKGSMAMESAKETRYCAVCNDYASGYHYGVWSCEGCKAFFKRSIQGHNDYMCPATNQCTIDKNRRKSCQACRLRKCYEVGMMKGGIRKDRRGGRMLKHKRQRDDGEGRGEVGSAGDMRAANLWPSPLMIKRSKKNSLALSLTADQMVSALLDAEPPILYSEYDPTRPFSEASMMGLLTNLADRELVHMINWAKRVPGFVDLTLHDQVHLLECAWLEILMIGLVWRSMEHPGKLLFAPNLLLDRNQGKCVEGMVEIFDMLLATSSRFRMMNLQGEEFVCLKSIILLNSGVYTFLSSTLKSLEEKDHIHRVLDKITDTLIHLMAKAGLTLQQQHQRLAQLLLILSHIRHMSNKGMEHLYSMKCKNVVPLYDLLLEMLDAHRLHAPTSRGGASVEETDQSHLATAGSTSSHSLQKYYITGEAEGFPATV

[9] = target: 5-hydroxytryptamine receptor 1B (Rattus norvegicus, UniProt P28564); format: cell membranes, Wistar, Cerebral cortex, Membrane; further: in other assays of this panel Not Active means under 50% inhibition at 10 µM
Sequence of 5-hydroxytryptamine receptor 1B (P28564 whole entry): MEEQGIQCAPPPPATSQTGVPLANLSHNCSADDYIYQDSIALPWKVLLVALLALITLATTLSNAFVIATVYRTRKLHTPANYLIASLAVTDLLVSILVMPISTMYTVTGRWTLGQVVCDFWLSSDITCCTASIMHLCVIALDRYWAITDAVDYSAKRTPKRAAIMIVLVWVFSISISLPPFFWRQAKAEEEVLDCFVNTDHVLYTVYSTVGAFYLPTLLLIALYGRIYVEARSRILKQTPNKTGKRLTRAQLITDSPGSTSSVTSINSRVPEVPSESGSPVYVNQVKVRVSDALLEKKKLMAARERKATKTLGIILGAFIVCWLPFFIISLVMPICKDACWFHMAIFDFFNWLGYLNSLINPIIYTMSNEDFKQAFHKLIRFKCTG

[10] = DRUGMATRIX: Phorbol Ester radioligand binding (ligand: [3H] PDBu); format: cell membranes, Mus musculus, ICR, Brain, Membrane; settings: Not Active = under 50% inhibition at 10 µM
Cytochrome P450 2A6 = target: T3, Cytochrome P450 2A6 (Homo sapiens, UniProt P11509); settings: bti-tn-5b1-4; further: in other assays of this panel Not Active means under 50% inhibition at 10 µM
T3 sequence (P11509 whole entry): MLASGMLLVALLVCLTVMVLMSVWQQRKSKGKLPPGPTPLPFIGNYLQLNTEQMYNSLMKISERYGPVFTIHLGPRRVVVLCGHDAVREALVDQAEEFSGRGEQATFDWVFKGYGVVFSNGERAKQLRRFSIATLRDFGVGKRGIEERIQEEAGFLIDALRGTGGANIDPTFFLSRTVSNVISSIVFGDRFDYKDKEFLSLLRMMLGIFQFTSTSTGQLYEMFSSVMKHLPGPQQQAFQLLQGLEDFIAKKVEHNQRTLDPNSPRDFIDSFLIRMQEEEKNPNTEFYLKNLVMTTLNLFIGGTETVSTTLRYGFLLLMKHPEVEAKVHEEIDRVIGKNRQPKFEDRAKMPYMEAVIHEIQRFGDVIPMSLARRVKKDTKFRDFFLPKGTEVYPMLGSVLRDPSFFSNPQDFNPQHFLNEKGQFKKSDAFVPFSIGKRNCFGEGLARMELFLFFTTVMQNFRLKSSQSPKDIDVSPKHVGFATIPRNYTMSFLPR

Substance-P receptor = Substance-P receptor (Homo sapiens, UniProt P25103); format: cell membranes, CHO, Membrane; settings: cho; further: in other assays of this panel Not Active means under 50% inhibition at 10 µM
Sequence of Substance-P receptor (P25103 whole entry): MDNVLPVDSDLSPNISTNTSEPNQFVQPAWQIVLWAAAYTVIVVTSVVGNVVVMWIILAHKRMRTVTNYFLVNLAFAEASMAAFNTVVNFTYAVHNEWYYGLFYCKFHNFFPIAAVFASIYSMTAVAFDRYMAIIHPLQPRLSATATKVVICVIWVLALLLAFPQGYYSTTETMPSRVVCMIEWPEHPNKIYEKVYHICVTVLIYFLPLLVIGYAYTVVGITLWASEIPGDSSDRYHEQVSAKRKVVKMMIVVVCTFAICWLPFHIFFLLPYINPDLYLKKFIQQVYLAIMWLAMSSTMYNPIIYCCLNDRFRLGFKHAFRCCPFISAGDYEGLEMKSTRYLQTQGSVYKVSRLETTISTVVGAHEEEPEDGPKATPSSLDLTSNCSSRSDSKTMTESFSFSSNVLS

Leukotriene C4 synthase = target: T4, Leukotriene C4 synthase (Cavia porcellus, UniProt A6XA80); test: biochemical; format: tissue-based, Lung
T4 sequence (A6XA80 whole entry): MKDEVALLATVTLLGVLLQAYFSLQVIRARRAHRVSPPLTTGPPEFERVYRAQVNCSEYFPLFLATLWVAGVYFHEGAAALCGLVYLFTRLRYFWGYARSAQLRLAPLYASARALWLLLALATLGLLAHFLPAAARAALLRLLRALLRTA

[11] = DRUGMATRIX: Glutamate, Kainate radioligand binding (ligand: [3H] Kainic acid); format: cell membranes, Rattus norvegicus, Wistar, Brain, Membrane; settings: Not Active = under 50% inhibition at 10 µM

COCc1c(C(C)C)nc(C(C)C)c(/C=C/[C@@H](O)C[C@@H](O)CC(=O)O)c1-c1ccc(F)cc1 [CERIVASTATIN]
Not Active: IC50 [1] | Ki [1] | IC50 [2] | IC50 [3] | IC50 [4] | IC50 [5] | Ki [5] | IC50 [6] | IC50 [7] | IC50 [8] | IC50 (Estrogen receptor) | IC50 [9] | IC50 [10] | Ki [10] | IC50 (Cytochrome P450 2A6) | Ki (Cytochrome P450 2A6) | IC50 (Substance-P receptor) | IC50 (Leukotriene C4 synthase) | IC50 [11] | Ki [11]

CC(=O)[C@@]1(O)CC[C@H]2[C@@H]3C[C@H](C)C4=CC(=O)C=C[C@]4(C)[C@@]3(F)[C@@H](O)C[C@@]21C [FLUOROMETHOLONE]
Not Active: IC50 [1] | Ki [1] | IC50 [2] | IC50 [3] | IC50 [4] | IC50 [5] | Ki [5] | IC50 [6] | IC50 [7] | IC50 [8] | IC50 (Estrogen receptor) | IC50 [9] | IC50 [10] | Ki [10] | IC50 (Cytochrome P450 2A6) | Ki (Cytochrome P450 2A6) | IC50 (Substance-P receptor) | IC50 (Leukotriene C4 synthase) | IC50 [11] | Ki [11]

O=c1[nH]cc(F)c(=O)[nH]1 [FLUOROURACIL]
Not Active: IC50 [1] | Ki [1] | IC50 [2] | IC50 [3] | IC50 [4] | IC50 [5] | Ki [5] | IC50 [6] | IC50 [7] | IC50 [8] | IC50 (Estrogen receptor) | IC50 [9] | IC50 [10] | Ki [10] | IC50 (Cytochrome P450 2A6) | Ki (Cytochrome P450 2A6) | IC50 (Substance-P receptor) | IC50 (Leukotriene C4 synthase) | IC50 [11] | Ki [11]

O=C(O)c1cn(C2CC2)c2cc(N3CCNCC3)c(F)cc2c1=O [CIPROFLOXACIN]
Not Active: IC50 [1] | Ki [1] | IC50 [2] | IC50 [3] | IC50 [4] | IC50 [5] | Ki [5] | IC50 [6] | IC50 [7] | IC50 [8] | IC50 (Estrogen receptor) | IC50 [9] | IC50 [10] | Ki [10] | IC50 (Cytochrome P450 2A6) | Ki (Cytochrome P450 2A6) | IC50 (Substance-P receptor) | IC50 (Leukotriene C4 synthase) | IC50 [11] | Ki [11]

CC(C)(Oc1ccc(CCNC(=O)c2ccc(Cl)cc2)cc1)C(=O)O [BEZAFIBRATE]
Not Active: IC50 [1] | Ki [1] | IC50 [2] | IC50 [3] | IC50 [4] | IC50 [5] | Ki [5] | IC50 [6] | IC50 [7] | IC50 [8] | IC50 (Estrogen receptor) | IC50 [9] | IC50 [10] | Ki [10] | IC50 (Cytochrome P450 2A6) | Ki (Cytochrome P450 2A6) | IC50 (Substance-P receptor) | IC50 (Leukotriene C4 synthase) | IC50 [11] | Ki [11]

Nc1nc(=O)[nH]cc1F [FLUCYTOSINE]
Not Active: IC50 [1] | Ki [1] | IC50 [2] | IC50 [3] | IC50 [4] | IC50 [5] | Ki [5] | IC50 [6] | IC50 [7] | IC50 [8] | IC50 (Estrogen receptor) | IC50 [9] | IC50 [10] | Ki [10] | IC50 (Cytochrome P450 2A6) | Ki (Cytochrome P450 2A6) | IC50 (Substance-P receptor) | IC50 (Leukotriene C4 synthase) | IC50 [11] | Ki [11]

CC1(C)S[C@@H]2[C@H](NC(=O)[C@H](NC(=O)N3CCNC3=O)c3ccccc3)C(=O)N2[C@H]1C(=O)O [AZLOCILLIN]
Not Active: IC50 [1] | Ki [1] | IC50 [2] | IC50 [3] | IC50 [4] | IC50 [5] | Ki [5] | IC50 [6] | IC50 [7] | IC50 [8] | IC50 (Estrogen receptor) | IC50 [9] | IC50 [10] | Ki [10] | IC50 (Cytochrome P450 2A6) | Ki (Cytochrome P450 2A6) | IC50 (Substance-P receptor) | IC50 (Leukotriene C4 synthase) | IC50 [11] | Ki [11]

CN1CCC[C@H]1c1cccnc1 [NICOTINE]
Not Active: IC50 [1] | Ki [1] | IC50 [2] | IC50 [3] | IC50 [4] | IC50 [5] | Ki [5] | IC50 [6] | IC50 [7] | IC50 [8] | IC50 (Estrogen receptor) | IC50 [9] | IC50 [10] | Ki [10] | IC50 (Cytochrome P450 2A6) | Ki (Cytochrome P450 2A6) | IC50 (Substance-P receptor) | IC50 (Leukotriene C4 synthase) | IC50 [11] | Ki [11]
